According to ChEMBL document CHEMBL1136379, “Identification of potent and broad-spectrum antibiotics from SAR studies of a synthetic vancomycin analogue” (2003):
≈ marks a conversion by molar mass, not a printed value.

Legend:
Format in all cases: functional
Enterococcus faecium [1] = experiment: Compound tested for Susceptibility of vancomycin-resistant Enterococcus faecium
Enterococcus faecium [2] = experiment: Minimum inhibitory concentration against vancomycin-resistant Enterococcus faecium
[3] = tested on: Staphylococcus epidermidis; experiment: Compound tested for Susceptibility of Staphylococcus epidermidis
Streptococcus pneumoniae [4] = experiment: Compound tested for Susceptibility of Streptococcus pneumoniae (Penicillin-intermediate)
Enterococcus faecalis = experiment: Compound tested for Susceptibility of Enterococcus faecalis
Escherichia coli [5] = experiment: Compound tested for Susceptibility of Escherichia coli (efflux mutant)
Staphylococcus aureus [6] = experiment: Compound tested for Susceptibility of Methicillin-resistant Staphylococcus aureus […]
Moraxella catarrhalis = experiment: Compound tested for Susceptibility of Moraxella catarrhalis
Pseudomonas aeruginosa = experiment: Compound tested for Susceptibility of Pseudomonas aeruginosa
Escherichia coli [7] = experiment: Compound tested for Susceptibility of Escherichia coli
Streptococcus pneumoniae [8] = experiment: Compound tested for Susceptibility of Streptococcus pneumoniae
Staphylococcus aureus [9] = experiment: Compound tested for Susceptibility of Staphylococcus aureus
Klebsiella pneumoniae = experiment: Compound tested for Susceptibility of Klebsiella pneumoniae
Haemophilus influenzae [10] = experiment: Compound tested for Susceptibility of Haemophilus influenzae (efflux mutant)
Streptococcus pyogenes = experiment: Compound tested for Susceptibility of Streptococcus pyogenes
[11] = tested on: Staphylococcus epidermidis; experiment: Compound tested for Susceptibility of Methicillin-resistant Staphylococcus epidermidis (MRSE)
Enterococcus faecium [12] = experiment: Compound tested for Susceptibility of Enterococcus faecium
Haemophilus influenzae [13] = experiment: Compound tested for Susceptibility of Haemophilus influenzae

| SMILES | MIC (Enterococcus faecium [1]) [µg/mL] | MIC (Enterococcus faecium [2]) [µg/mL] | also measured |
| --- | --- | --- | --- |
| CN[C@H](CC(C)C)C(=O)N[C@@H]1Cc2ccc(cc2)Oc2cc(ccc2O)C(C(=O)N[C@@H](CN)C(=O)N[C@@H](Cc2ccccc2)C(=O)N2Cc3[nH]c4ccccc4c3C[C@H]2C(N)=O)NC(=O)[C@H](CC(N)=O)NC1=O (stereo not given in full) | 150 (≈ 150 µM) | 300 (≈ 300 µM) |  |
| CC(=O)N[C@@H](CN)C(=O)N[C@@H](Cc1ccccc1)C(=O)N1Cc2[nH]c3ccccc3c2C[C@H]1C(N)=O | 1200 (≈ 2450 µM) | 600 (≈ 1220 µM) |  |
| CN[C@H](CC(C)C)C(=O)N[C@@H](CN)C(=O)N[C@@H](Cc1ccccc1)C(=O)N1Cc2[nH]c3ccccc3c2C[C@H]1C(N)=O | > 1200 | 600 (≈ 1040 µM) |  |
| CC(=O)N[C@@H](CN)C(=O)N[C@@H](Cc1ccccc1)C(=O)N1Cc2[nH]c3ccccc3c2C[C@H]1C(=O)NCC(O)CNC(=O)[C@@H]1Cc2c([nH]c3ccccc23)CN1C(=O)[C@H](Cc1ccccc1)NC(=O)[C@H](CN)NC(C)=O | 18 (≈ 17.4 µM) | 600 (≈ 578 µM) |  |
| CNC(CC(C)C)C(=O)N[C@@H](CN)C(=O)N[C@@H](Cc1ccccc1)C(=O)N1Cc2[nH]c3ccccc3c2C[C@H]1C(=O)NCC(O)CNC(=O)[C@@H]1Cc2c([nH]c3ccccc23)CN1C(=O)[C@H](Cc1ccccc1)NC(=O)[C@H](CN)NC(=O)[C@@H](CC(C)C)NC (stereo not given in full) | 18 (≈ 14.9 µM) | 600 (≈ 497 µM) | MIC [3]: 24 µg/mL (≈ 19.9 µM); MIC (Streptococcus pneumoniae [4]): 8 µg/mL (≈ 6.63 µM); MIC (Enterococcus faecalis): 8 µg/mL (≈ 6.63 µM); MIC (Escherichia coli [5]): 16 µg/mL (≈ 13.3 µM); MIC (Staphylococcus aureus [6]): 32 µg/mL (≈ 26.5 µM); MIC (Moraxella catarrhalis): 8 µg/mL (≈ 6.63 µM); MIC (Pseudomonas aeruginosa): 128 µg/mL (≈ 106 µM); MIC (Escherichia coli [7]): 32 µg/mL (≈ 26.5 µM); MIC (Streptococcus pneumoniae [8]): 16 µg/mL (≈ 13.3 µM); MIC (Staphylococcus aureus [9]): 16 µg/mL (≈ 13.3 µM); MIC (Klebsiella pneumoniae): > 128 µg/mL; MIC (Haemophilus influenzae [10]): 16 µg/mL (≈ 13.3 µM); MIC (Streptococcus pyogenes): 2 µg/mL (≈ 1.66 µM); MIC [11]: 8 µg/mL (≈ 6.63 µM); MIC (Enterococcus faecium [12]): 4 µg/mL (≈ 3.31 µM); MIC (Haemophilus influenzae [13]): 96 µg/mL (≈ 79.5 µM) |
| CN[C@H](CC(C)C)C(=O)N[C@@H]1Cc2ccc(cc2)Oc2cc(ccc2O)C(C(=O)N[C@@H](CN)C(=O)N[C@@H](Cc2ccccc2)C(=O)N2Cc3[nH]c4ccccc4c3C[C@H]2C(=O)NCCC(O)CCNC(=O)[C@@H]2Cc3c([nH]c4ccccc34)CN2C(=O)[C@H](Cc2ccccc2)NC(=O)[C@H](CN)NC(=O)C2NC(=O)[C@H](CC(N)=O)NC(=O)[C@H](NC(=O)[C@@H](CC(C)C)NC)Cc3ccc(cc3)Oc3cc2ccc3O)NC(=O)[C@H](CC(N)=O)NC1=O (stereo not given in full) | 18 (≈ 8.64 µM) | 600 (≈ 288 µM) |  |
| NC(=O)C[C@@H]1NC(=O)[C@H](NC(=O)OCC2c3ccccc3-c3ccccc32)Cc2ccc(cc2)Oc2c(O)ccc(CC(=O)O)c2NC1=O |  | 300 (≈ 451 µM) |  |
| CN[C@@H](CC(C)C)C(=O)N[C@@H]1Cc2ccc(cc2)Oc2cc(ccc2O)C(C(=O)N[C@@H](CN)C(=O)N[C@@H](Cc2ccccc2)C(=O)N2Cc3[nH]c4ccccc4c3C[C@H]2C(=O)NCCCC(O)CCCNC(=O)[C@@H]2Cc3c([nH]c4ccccc34)CN2C(=O)[C@H](Cc2ccccc2)NC(=O)[C@H](CN)NC(=O)C2NC(=O)[C@H](CC(N)=O)NC(=O)[C@H](NC(=O)[C@@H](CC(C)C)NC)Cc3ccc(cc3)Oc3cc2ccc3O)NC(=O)[C@H](CC(N)=O)NC1=O (stereo not given in full) [VANCOMYCIN ANALOGUE] | 38 (≈ 18 µM) | 600 (≈ 284 µM) |  |
| CN[C@H](CC(C)C)C(=O)N[C@@H]1Cc2ccc(cc2)Oc2cc(ccc2O)C(C(=O)N[C@@H](CN)C(=O)N[C@@H](Cc2ccccc2)C(=O)N2Cc3[nH]c4ccccc4c3C[C@H]2C(=O)NCC(O)CNC(=O)[C@@H]2Cc3c([nH]c4ccccc34)CN2C(=O)[C@H](Cc2ccccc2)NC(=O)[C@H](CN)NC(=O)C2NC(=O)[C@H](CC(N)=O)NC(=O)[C@H](NC(=O)[C@@H](CC(C)C)NC)Cc3ccc(cc3)Oc3cc2ccc3O)NC(=O)[C@H](CC(N)=O)NC1=O (stereo not given in full) [VANCOMYCIN ANALOGUE] | 9 (≈ 4.38 µM) | 600 (≈ 292 µM) |  |
| CN[C@H](CC(C)C)C(=O)N[C@H]1C(=O)N[C@@H](CC(N)=O)C(=O)N[C@H]2C(=O)N[C@H]3C(=O)N[C@H](C(=O)N[C@H](C(=O)O)c4cc(O)cc(O)c4-c4cc3ccc4O)[C@H](O)c3ccc(c(Cl)c3)Oc3cc2cc(c3O[C@@H]2O[C@H](CO)[C@@H](O)[C@H](O)[C@H]2O[C@H]2C[C@](C)(N)[C@H](O)[C@H](C)O2)Oc2ccc(cc2Cl)[C@H]1O [VANCOMYCIN] | 600 (≈ 414 µM) | 600 (≈ 414 µM) |  |
